Test results published in patent US11071735B2, “Treatment of inflammatory conditions and autoimmune diseases with glucose uptake inhibitors” (Kadmon Corporation, LLC, priority 2017, dated 2021).

Columns and labels:
Assay type in all cases: cell-based
GLUT3 = biological target: T1, GLUT3 (Homo sapiens, UniProt P11169); assay: glycolysis assay in DLD1 GLUT1−/− cells (rely on GLUT3); settings: DLD1-KO (GLUT1−/−) cells; 10 μM oligomycin, one hour
T1 construct: endogenous in cells; host or cells: DLD1 GLUT1−/− (knock-out) cancer cells
T1 sequence (P11169 1-496): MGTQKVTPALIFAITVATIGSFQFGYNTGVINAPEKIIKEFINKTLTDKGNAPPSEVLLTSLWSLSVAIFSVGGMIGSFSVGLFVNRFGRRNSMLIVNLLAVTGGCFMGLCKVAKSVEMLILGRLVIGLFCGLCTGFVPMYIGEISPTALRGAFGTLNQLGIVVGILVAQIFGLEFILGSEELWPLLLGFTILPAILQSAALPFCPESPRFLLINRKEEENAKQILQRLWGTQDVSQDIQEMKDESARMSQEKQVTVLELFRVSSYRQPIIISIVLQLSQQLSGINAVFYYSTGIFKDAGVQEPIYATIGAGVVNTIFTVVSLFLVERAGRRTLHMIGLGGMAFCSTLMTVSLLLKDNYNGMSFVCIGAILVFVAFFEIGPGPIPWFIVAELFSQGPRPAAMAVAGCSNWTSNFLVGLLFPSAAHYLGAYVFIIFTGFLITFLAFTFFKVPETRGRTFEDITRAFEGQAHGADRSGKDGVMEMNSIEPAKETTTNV
Experimental: (§1) Cells were treated with GLUT inhibitors plus oligomycin and subsequently ATP levels were determined using Cell Titer Glo. […] FIG. 1B reports the IC50 of glycolysis inhibition for selected compounds.
(§2) Accordingly, we have investigated the use of inhibitors of GLUT transporters against activated pro-inflammatory immune cells, including but not limited to activated human CD4+ T cells. In order to understand what GLUT transporters are required to sustain glycolysis in activated T cells, we first utilized the syngeneic cancer cell lines DLD1 WT and DLD GLUT1−/− that rely on GLUT1 and GLUT3 expression, respectively, for glucose transport. Within this system, we have identified small molecules that simultaneously have the property of inhibiting both GLUT1 and GLUT3 mediated glucose transport. In addition, we have confirmed the GLUT1-selective nature of a published small molecule inhibitor of GLUT1 (Chem Med Chem. 2016 Oct. 19; 11(20):2261-2271).
(§3) Determination of glucose uptake/GLUT activity (glycolysis assay): HT1080 cells, DLD1 cells (WT and GLUT1−/−) and human CD4+ T cells were plated in 96-well plates. Cells were exposed to the combination of 10 μM Oligomycin (to block mitochondrial-derived ATP) and the glucose uptake inhibitors disclosed herein for one-hour, after which glycolytically-derived ATP was measured with the Cell Titer-Glo assay kit (Promega). Dose-response curves of the glucose uptake inhibitors disclosed herein were used to determine the IC50 for GLUT activity.

GLUT1 = biological target: T2, GLUT1 (Homo sapiens, UniProt P11166); assay: glycolysis assay in DLD1 WT cells (rely on GLUT1); settings: DLD1-WT cells; 10 μM oligomycin, one hour
T2 construct: endogenous in cells; host or cells: DLD1 WT cancer cells
T2 sequence (P11166 1-492): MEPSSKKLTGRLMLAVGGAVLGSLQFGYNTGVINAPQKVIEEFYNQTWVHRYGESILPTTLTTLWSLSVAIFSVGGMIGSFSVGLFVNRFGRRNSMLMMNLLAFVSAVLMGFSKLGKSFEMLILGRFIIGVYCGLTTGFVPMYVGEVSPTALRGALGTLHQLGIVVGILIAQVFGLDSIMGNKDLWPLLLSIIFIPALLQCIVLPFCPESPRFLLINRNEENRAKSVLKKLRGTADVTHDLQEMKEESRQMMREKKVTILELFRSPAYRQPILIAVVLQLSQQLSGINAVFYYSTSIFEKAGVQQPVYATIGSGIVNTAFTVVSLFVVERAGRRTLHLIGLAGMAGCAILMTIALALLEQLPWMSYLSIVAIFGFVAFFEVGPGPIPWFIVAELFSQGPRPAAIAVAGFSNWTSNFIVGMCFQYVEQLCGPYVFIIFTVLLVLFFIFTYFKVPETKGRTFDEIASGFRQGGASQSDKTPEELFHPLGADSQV
Experimental: as §1, §2, §3

GLUT = assay: glycolysis assay (oligomycin + Cell Titer-Glo ATP readout) in HT1080 cells; settings: 10 μM oligomycin, one hour, glycolytically-derived ATP
Description: The combination of inhibitors of both oxidative phosphorylation and glycolysis synergistically suppress cellular ATP levels. Therefore, our assay utilizes the combination of our glucose uptake inhibitors with oligomycin, a well-characterized inhibitor of ATP synthase. Because oligomycin inhibits ATP derived from oxidative phosphorylation, any remaining ATP production is derived from glycolysis. By reading out cellular ATP levels using the Promega
Titer Glo kit, we can assess the extent of glycolysis inhibition by our glucose uptake inhibitors. Using this experimental set-up in HT1080 cancer cells, we determined the IC50 of glycolysis inhibition for the compounds.
as §3

IC50 (GLUT3) | IC50 (GLUT1) | IC50 (GLUT) | SMILES
305 nM | 178 nM | 188 nM | CCCOc1ccc2nc(-c3cccc(OCC(=O)NC(C)C)c3)nc(Nc3ccc(-c4cn[nH]c4)cc3)c2c1 [Ex. 32, 2-(3-(4-((4-(1H-Pyrazol-4-yl)phenyl)amino)-6-propoxyquinazolin-2-yl)phenoxy)-N-isopropylacetamide]
68.4 nM | 1070 nM | 433 nM | COc1ccc2nc(-c3cccc(OCC(=O)NCC(F)(F)F)c3)nc(Nc3ccc(-c4cn[nH]c4)cc3)c2c1 [Ex. 25, 2-(3-(4-((4-(1H-pyrazol-4-yl)phenyl)amino)-6-methoxyquinazolin-2-yl)phenoxy)-N-(2,2,2-trifluoroethyl)acetamide]
118 nM | 81.6 nM | 92.1 nM | CC[C@@H](C)NC(=O)COc1cccc(-c2nc(Nc3ccc(-c4cn[nH]c4)cc3)c3cc(OC)ccc3n2)c1 [Ex. 52, (R)-2-(3-(4-((4-(1H-pyrazol-4-yl)phenyl)amino)-6-methoxyquinazolin-2-yl)phenoxy)-N-(sec-butyl)acetamide]
120 nM | 94 nM | 141 nM | CCOc1ccc2nc(-c3cccc(OCC(=O)NC4CCC4)c3)nc(Nc3ccc(-c4cn[nH]c4)cc3)c2c1 [Ex. 6, 2-(3-(4-((4-(1H-pyrazol-4-yl)phenyl)amino)-6-ethoxyquinazolin-2-yl)phenoxy)-N-cyclobutylacetamide]
134 nM | 47 nM | 189 nM | COc1ccc2nc(-c3cccc(OCC(=O)NCC(C)C)c3)nc(Nc3ccc(-c4cn[nH]c4)cc3)c2c1 [Ex. 14, 2-(3-(4-((4-(1H-pyrazol-4-yl)phenyl)amino)-6-methoxyquinazolin-2-yl)phenoxy)-N-isobutylacetamide]
248 nM | 786 nM | 408 nM | CCOc1ccc2nc(-c3cccc(OCC(=O)NC(C)C)c3)nc(Nc3ccc(-c4cn[nH]c4)cc3F)c2c1 [Ex. 21, 2-(3-(6-ethoxy-4-((2-fluoro-4-(1H-pyrazol-4-yl)phenyl)amino)quinazolin-2-yl)phenoxy)-N-isopropylacetamide]
148 nM | 86 nM | 50 nM | CCOc1ccc2nc(-c3cccc(OCC(=O)NC(C)(C)CC)c3)nc(Nc3ccc(-c4cn[nH]c4)cc3)c2c1 [Ex. 4, 2-(3-(4-((4-(1H-pyrazol-4-yl)phenyl)amino)-6-ethoxyquinazolin-2-yl)phenoxy)-N-(tert-pentyl)acetamide]
325 nM | 3480 nM | 1350 nM | COc1ccc2nc(-c3cc(F)cc(OCC(=O)NC(C)C)c3)nc(Nc3ccc(-c4cn[nH]c4)cc3)c2c1 [Ex. 11, 2-(3-(4-((4-(1H-pyrazol-4-yl)phenyl)amino)-6-methoxyquinazolin-2-yl)-5-fluorophenoxy)-N-isopropylacetamide]
110 nM | 40.5 nM | 58.9 nM | COc1ccc2nc(-c3cccc(OCC(=O)NC4CCCC4)c3)nc(Nc3ccc(-c4cn[nH]c4)cc3)c2c1 [Ex. 10, 2-(3-(4-((4-(1H-pyrazol-4-yl)phenyl)amino)-6-methoxyquinazolin-2-yl)phenoxy)-N-cyclopentylacetamide]
38.9 nM | 86.9 nM | 54 nM | COc1ccc2nc(-c3cccc(OCC(=O)NC(C)(C)C)c3)nc(Nc3ccc(-c4cn[nH]c4)cc3)c2c1 [Ex. 13, 2-(3-(4-((4-(1H-pyrazol-4-yl)phenyl)amino)-6-methoxyquinazolin-2-yl)phenoxy)-N-(tert-butyl)acetamide]
166 nM | 598 nM | 248 nM | CCCNC(=O)COc1cccc(-c2nc(Nc3ccc(-c4cn[nH]c4)cc3)c3cc(OC)ccc3n2)c1 [Ex. 12, 2-(3-(4-((4-(1H-pyrazol-4-yl)phenyl)amino)-6-methoxyquinazolin-2-yl)phenoxy)-N-propylacetamide]
51.5 nM | 65.7 nM | 60.8 nM | CC(C)(C)NC(=O)COc1cccc(-c2nc(Nc3ccc(-c4cn[nH]c4)cc3)c3cc(OCCF)ccc3n2)c1 [Ex. 38, 2-(3-(4-((4-(1H-Pyrazol-4-yl)phenyl)amino)-6-(2-fluoroethoxy)quinazolin-2-yl)phenoxy)-N-(tert-butyl)acetamide]
87 nM | 34.8 nM | 37.1 nM | CC[C@H](C)NC(=O)COc1cccc(-c2nc(Nc3ccc(-c4cn[nH]c4)cc3)c3cc(OCCF)ccc3n2)c1 [Ex. 46, (S)-2-(3-(4-((4-(1H-pyrazol-4-yl)phenyl)amino)-6-(2-fluoroethoxy)quinazolin-2-yl)phenoxy)-N-(sec-butyl)acetamide]
86.6 nM | 352 nM | 183 nM | COc1ccc2nc(-c3cccc(OCC(=O)NC4CC(F)(F)C4)c3)nc(Nc3ccc(-c4cn[nH]c4)cc3)c2c1 [Ex. 15, 2-(3-(4-((4-(1H-pyrazol-4-yl)phenyl)amino)-6-methoxyquinazolin-2-yl)phenoxy)-N-(3,3-difluorocyclobutyl)acetamide]
233 nM | 98 nM | 128 nM | CCOc1ccc2nc(-c3cccc(OCC(=O)NC(CC)CC)c3)nc(Nc3ccc(-c4cn[nH]c4)cc3)c2c1 [Ex. 7, 2-(3-(4-((4-(1H-pyrazol-4-yl)phenyl)amino)-6-ethoxyquinazolin-2-yl)phenoxy)-N-(pentan-3-yl)acetamide]
43.9 nM | 99.5 nM | 89 nM | CCOc1ccc2nc(-c3cccc(OCC(=O)NC(C)CC)c3)nc(Nc3ccc(-c4cn[nH]c4)cc3)c2c1 (stereo not drawn) [Ex. 18, 2-(3-(4-((4-(1H-pyrazol-4-yl)phenyl)amino)-6-ethoxyquinazolin-2-yl)phenoxy)-N-(sec-butyl)acetamide]

SMILES | IC50 (GLUT3) | IC50 (GLUT1) | IC50 (GLUT)
CCOc1ccc2nc(-c3cccc(OCC(=O)NC(C)(C)C)c3)nc(Nc3ccc(-c4cc[nH]n4)cc3)c2c1 [Ex. 27, 2-(3-(4-((4-(1H-Pyrazol-3-yl)phenyl)amino)-6-ethoxyquinazolin-2-yl)phenoxy)-N-(tert-butyl)acetamide] | 116 nM | 252 nM | 310 nM
COCCOc1ccc2nc(-c3cccc(OCC(=O)NC(C)(C)C)c3)nc(Nc3ccc(-c4cn[nH]c4)cc3)c2c1 [Ex. 39, 2-(3-(4-((4-(1H-Pyrazol-4-yl)phenyl)amino)-6-(2-methoxyethoxy)quinazolin-2-yl)phenoxy)-N-(tert-butyl)acetamide] | 34.2 nM | 40.6 nM | 34.1 nM
CC(C)(C)NC(=O)COc1cccc(-c2nc(Nc3ccc(-c4cn[nH]c4)cc3)c3cc(F)ccc3n2)c1 [Ex. 29, 2-(3-(4-((4-(1H-Pyrazol-4-yl)phenyl)amino)-6-fluoroquinazolin-2-yl)phenoxy)-N-(tert-butyl)acetamide] | 142 nM | 124 nM | 123 nM
CC(C)(C)NC(=O)COc1cccc(-c2nc(Nc3ccc(-c4cn[nH]c4)cc3)c3ccc(F)cc3n2)c1 [Ex. 30, 2-(3-(4-((4-(1H-Pyrazol-4-yl)phenyl)amino)-7-fluoroquinazolin-2-yl)phenoxy)-N-(tert-butyl)acetamide] | 195 nM | 624 nM | 425 nM
